{
  "source": "patent US8637525B2",
  "about": "“Compounds for the reduction of beta-amyloid production” (Bristol-Myers Squibb Company, priority 2009, dated 2014)",
  "system": "Aβ1-42 production",
  "experiment": "Cellular assay for inhibition of Aβ1-42 production (H4 APP751 SWE clone 8.20)",
  "format": "cell-based",
  "details": "H4 APP751 SWE clone 8.20 cells, 19 h incubation",
  "how_it_was_run": "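Inhibition values are IC50s fitted to Viewlux counts after a 19 h compound exposure at 37 °C. Aβ42 was captured by the neoepitope-specific antibody 565 (0.8 ng/well) paired with N-terminal 26D6 (75 ng/well), incubated overnight at 4 °C in pH 7.4 Tris-HCl buffer containing 0.2% BSA.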",
  "key": {"[1]": {"details": "class symbols, read-out: Activity Rating (Aβ42 cellular IC50)"}, "[2]": {"details": "19 h, class symbols, read-out: Activity Rating (Aβ42 cellular IC50)"}, "[3]": {"details": "19 h, read-out: Activity Rating (Aβ42 cellular IC50), numeric value"}},
  "note": "Where two headings read alike, the source gives them in different places.",
  "data": [
    {"smiles": "CNc1nc(Nc2ccc(-n3cnc(Cl)c3)c(OC)c2)nc2c1CCC2c1cc(F)c(F)c(F)c1", "note": "(single isomer, unassigned) [Example 103B, N^2-(4-(4-chloro-1H-imidazol-1-yl)-3-methoxyphenyl)-N^4-methyl-7-(3,4,5-trifluorophenyl)-6,7-dihydro-5H-cyclopenta[d]pyrimidine-2,4-diamine]", "values": [
      {"measurement": "IC50", "setting": "[1]", "value": "10 to 100", "unit": "nM"}
    ]},
    {"smiles": "CNc1nc(Nc2ccc(-n3cnc(Cl)c3)c(OC)c2)nc2c1COCC2c1ccc(Cl)cc1", "note": "(single isomer, unassigned) [Example 64A, N^2-(4-(4-chloro-1H-imidazol-1-yl)-3-methoxyphenyl)-8-(4-chlorophenyl)-N^4-methyl-7,8-dihydro-5H-pyrano[4,3-d]pyrimidine-2,4-diamine]", "values": [
      {"measurement": "IC50", "setting": "[1]", "value": "1.5 to 9.9", "unit": "nM"}
    ]},
    {"smiles": "COc1cc(Nc2nc3c(c(N(C)C)n2)COCC3c2ccc(Cl)cc2)ccc1-n1cnc(Cl)c1", "note": "(stereo not drawn) [Example 65, N^2-(4-(4-chloro-1H-imidazol-1-yl)-3-methoxyphenyl)-8-(4-chlorophenyl)-N^4,N^4-dimethyl-7,8-dihydro-5H-pyrano[4,3-d]pyrimidine-2,4-diamine]", "values": [
      {"measurement": "IC50", "setting": "[2]", "value": "10 to 100", "unit": "nM"}
    ]},
    {"smiles": "CNc1nc(Nc2ccc(-n3cnc(Cl)c3)c(OC)c2)nc2c1COCC2c1ccc(C(F)(F)F)cc1", "note": "(stereo not drawn) [Example 120A, N2-(4-(4-chloro-1H-imidazol-1-yl)-3-methoxyphenyl)-N4-methyl-8-(4-(trifluoromethyl)phenyl)-7,8-dihydro-5H-pyrano[4,3-d]pyrimidine-2,4-diamine]", "values": [
      {"measurement": "IC50", "setting": "[1]", "value": "1.5 to 9.9", "unit": "nM"}
    ]},
    {"smiles": "COc1cc(Nc2nc3c(c(N4CCC(=O)C4)n2)CCC3c2ccccc2)ccc1-n1cnc(Cl)c1", "note": "(stereo not drawn) [Example 206, 1-(2-(4-(4-chloro-1H-imidazol-1-yl)-3-methoxyphenylamino)-7-phenyl-6,7-dihydro-5H-cyclopenta[d]pyrimidin-4-yl)pyrrolidin-3-one]", "values": [
      {"measurement": "IC50", "setting": "[3]", "value": 15, "unit": "nM"}
    ]},
    {"smiles": "CCNc1nc(Nc2ccc(-n3cnc(Cl)c3)c(OC)c2)nc2c1COCC2c1ccc(F)c(F)c1", "note": "(stereo not drawn) [Example 113A, N2-(4-(4-chloro-1H-imidazol-1-yl)-3-methoxyphenyl)-8-(3,4-difluorophenyl)-N4-ethyl-7,8-dihydro-5H-pyrano[4,3-d]pyrimidine-2,4-diamine]", "values": [
      {"measurement": "IC50", "setting": "[1]", "value": "1.5 to 9.9", "unit": "nM"}
    ]},
    {"smiles": "CNc1nc(Nc2ccc(C#N)c(OC(F)(F)F)c2)nc2c1CCC2c1ccccc1", "note": "(stereo not drawn) [Example 246, 4-(4-(methylamino)-7-phenyl-6,7-dihydro-5H-cyclopenta[d]pyrimidin-2-ylamino)-2-(trifluoromethoxy)benzonitrile]", "values": [
      {"measurement": "IC50", "setting": "[3]", "value": 31, "unit": "nM"}
    ]},
    {"smiles": "CNc1nc(Nc2ccc(-n3cnc(Cl)c3)c(OC)c2)nc2c1CCC2c1cc(F)cc(F)c1", "note": "(stereo not drawn) [Example 102B, N^2-(4-(4-Chloro-1H-imidazol-1-yl)-3-methoxyphenyl)-7-(3,5-difluorophenyl)-N^4-methyl-6,7-dihydro-5H-cyclopenta[d]pyrimidine-2,4-diamine]", "values": [
      {"measurement": "IC50", "setting": "[1]", "value": "10 to 100", "unit": "nM"}
    ]},
    {"smiles": "COc1cc(Nc2nc3c(c(N(C)C)n2)CN(S(C)(=O)=O)CC3c2ccccc2)ccc1-n1cnc(Cl)c1", "note": "(stereo not drawn) [Example 147, N2-(4-(4-chloro-1H-imidazol-1-yl)-3-methoxyphenyl)-N4,N4-dimethyl-6-(methylsulfonyl)-8-phenyl-5,6,7,8-tetrahydropyrido[4,3-d]pyrimidine-2,4-diamine]", "values": [
      {"measurement": "IC50", "setting": "[2]", "value": "10 to 100", "unit": "nM"}
    ]},
    {"smiles": "COc1cc(Nc2nc3c(c(N4CC(F)(F)C4)n2)CCC3c2ccc(F)cc2)ccc1-n1cnc(Cl)c1", "note": "(stereo not drawn) [Example 15, N-(4-(4-Chloro-1H-imidazol-1-yl)-3-methoxyphenyl)-4-(3,3-difluoroazetidin-1-yl)-7-(4-fluorophenyl)-6,7-dihydro-5H-cyclopenta[d]pyrimidin-2-amine]", "values": [
      {"measurement": "IC50", "setting": "[2]", "value": "10 to 100", "unit": "nM"}
    ]},
    {"smiles": "CNc1nc(Nc2ccc(-n3cnc(Cl)c3)c(OC)c2)nc2c1CCCC2c1ccccc1", "note": "(stereo not drawn) [Example 203, N2-(4-(4-chloro-1H-imidazol-1-yl)-3-methoxyphenyl)-N4-methyl-8-phenyl-5,6,7,8-tetrahydroquinazoline-2,4-diamine]", "values": [
      {"measurement": "IC50", "setting": "[3]", "value": 19, "unit": "nM"}
    ]},
    {"smiles": "CNc1nc(Nc2ccc(-n3cnc(Cl)c3)c(OC)c2)nc2c1COCC2c1ccc(Cl)cc1", "note": "(single isomer, unassigned) [Example 64B, N^2-(4-(4-chloro-1H-imidazol-1-yl)-3-methoxyphenyl)-8-(4-chlorophenyl)-N^4-methyl-7,8-dihydro-5H-pyrano[4,3-d]pyrimidine-2,4-diamine]", "values": [
      {"measurement": "IC50", "setting": "[1]", "value": "10 to 100", "unit": "nM"}
    ]},
    {"smiles": "COc1cc(Nc2nc3c(c(N(C)C)n2)C[C@H](O)[C@H]3c2ccccc2)ccc1-n1cnc(Cl)c1", "note": "[Example 180, (6S,7S)-2-(4-(4-chloro-1H-imidazol-1-yl)-3-methoxyphenylamino)-4-(dimethylamino)-7-phenyl-6,7-dihydro-5H-cyclopenta[d]pyrimidin-6-ol]", "values": [
      {"measurement": "IC50", "setting": "[2]", "value": "10 to 100", "unit": "nM"}
    ]},
    {"smiles": "CNc1nc(Nc2ccc(-n3cnc(Cl)c3)c(OC)c2)nc2c1C(O)CC2c1ccccc1", "note": "(stereo not drawn) [Example 202, 2-(4-(4-chloro-1H-imidazol-1-yl)-3-methoxyphenylamino)-4-(methylamino)-7-phenyl-6,7-dihydro-5H-cyclopenta[d]pyrimidin-5-ol]", "values": [
      {"measurement": "IC50", "setting": "[2]", "value": "1.5 to 9.9", "unit": "nM"}
    ]},
    {"smiles": "CNc1nc(Nc2ccc(-n3ncnc3C)c(F)c2)nc2c1CCC2c1ccccc1", "note": "(single isomer, unassigned) [Example 3B, N^2-(3-fluoro-4-(5-methyl-1H-1,2,4-triazol-1-yl)phenyl)-N^4-methyl-7-phenyl-6,7-dihydro-5H-cyclopenta[d]pyrimidine-2,4-diamine]", "values": [
      {"measurement": "IC50", "setting": "[1]", "value": "10 to 100", "unit": "nM"}
    ]},
    {"smiles": "CNc1nc(Nc2ccc(-n3ncnc3C)c(F)c2)nc2c1CCC2c1ccc(F)cc1", "note": "(stereo not drawn) [Example 26, N^2-(3-fluoro-4-(5-methyl-1H-1,2,4-triazol-1-yl)phenyl)-7-(4-fluorophenyl)-N^4-methyl-6,7-dihydro-5H-cyclopenta[d]pyrimidine-2,4-diamine]", "values": [
      {"measurement": "IC50", "setting": "[1]", "value": "1.5 to 9.9", "unit": "nM"}
    ]},
    {"smiles": "CCN(C)c1nc(Nc2ccc(-n3cnc(Cl)c3)c(OC)c2)nc2c1CCCC2c1ccccc1", "note": "(racemic) [Example 124, N^2-(4-(4-Chloro-1H-imidazol-1-yl)-3-methoxyphenyl)-N^4-ethyl-N^4-methyl-8-phenyl-5,6,7,8-tetrahydroquinazoline-2,4-diamine]", "values": [
      {"measurement": "IC50", "setting": "[2]", "value": "10 to 100", "unit": "nM"}
    ]},
    {"smiles": "CNc1nc(Nc2ccc3nc(C)oc3c2)nc2c1CCC2c1ccccc1", "note": "(stereo not drawn) [Example 252, N4-methyl-N2-(2-methylbenzo[d]oxazol-6-yl)-7-phenyl-6,7-dihydro-5H-cyclopenta[d]pyrimidine-2,4-diamine]", "values": [
      {"measurement": "IC50", "setting": "[2]", "value": "> 1000", "unit": "nM"}
    ]},
    {"smiles": "CNc1nc(Nc2ccc(-n3cnc(Cl)c3)c(OC)c2)nc2c1COCC2c1ccc(C(F)(F)F)cc1", "note": "(stereo not drawn) [Example 120B, N2-(4-(4-chloro-1H-imidazol-1-yl)-3-methoxyphenyl)-N4-methyl-8-(4-(trifluoromethyl)phenyl)-7,8-dihydro-5H-pyrano[4,3-d]pyrimidine-2,4-diamine]", "values": [
      {"measurement": "IC50", "setting": "[1]", "value": "100 to 1000", "unit": "nM"}
    ]},
    {"smiles": "CCN(C)c1nc(Nc2ccc(-n3cnc(Cl)c3)c(OC)c2)nc2c1CCN(S(C)(=O)=O)C2c1ccc(F)cc1", "note": "(stereo not drawn) [Example 172B, N2-(4-(4-chloro-1H-imidazol-1-yl)-3-methoxyphenyl)-N4-ethyl-8-(4-fluorophenyl)-N4-methyl-7-(methylsulfonyl)-5,6,7,8-tetrahydropyrido[3,4-d]pyrimidine-2,4-diamine]", "values": [
      {"measurement": "IC50", "setting": "[1]", "value": "100 to 1000", "unit": "nM"}
    ]},
    {"smiles": "COc1cc(Nc2nc3c(c(N4CCC(F)C4)n2)CCOC3c2ccc(F)cc2)ccc1-n1cnc(Cl)c1", "note": "(stereo in doubt) [Example 91B, N-(4-(4-chloro-1H-imidazol-1-yl)-3-methoxyphenyl)-8-(4-fluorophenyl)-4-((S)-3-fluoropyrrolidin-1-yl)-6,8-dihydro-5H-pyrano[3,4-d]pyrimidin-2-amine]", "values": [
      {"measurement": "IC50", "setting": "[1]", "value": "100 to 1000", "unit": "nM"}
    ]}
  ]
}
